According to paper PMC5356016, “Suppression of Sin3A activity promotes differentiation of pluripotent cells into functional neurons” (Scientific Reports, 2017):
Where no end group is shown, it is not given here.

T1: mouse Sin3A PAH2 (residues 295-385) (mouse, UniProt Q60520 295-385)
T1 construct: Sin3A, mouse, paired amphipathic helix 2 (PAH2) domain, residues 295-385
T1 sequence (looked up): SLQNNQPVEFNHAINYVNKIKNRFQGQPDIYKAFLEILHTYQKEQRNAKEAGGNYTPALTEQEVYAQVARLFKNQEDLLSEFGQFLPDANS

B1: FITC-labeled Mad1 peptide (sequence 6-21 of the Mad1 protein) (peptide)
peptide: RMNIQMLLEAADYLER
modifications: also: FITC label, position not given here
notes: Mad1 protein, residues 6-21; where the FITC is attached may be told there; source: synthetic peptide (solid support, Fmoc/t-Bu strategy)
B2: mouse Sin3A PAH1 (residues 114-195) (domain or fragment, UniProt Q60520 114-195, looked up)
chain: GQQQFQRLKVEDALSYLDQVKLQFGSQPQVYNDFLDIMKEFKSQSIDTPGVISRVSQLFKGHPDLIMGFNTFLPPGYKIEVQ
notes: Sin3A, mouse, paired amphipathic helix 1 (PAH1) domain, residues 114-195
B3: PAH2: mouse Sin3A PAH2 (residues 295–385) (protein)
chain: T1 sequence (looked up)
B4: Mad1 peptide (sequence 6-21 of the Mad1 protein) (peptide)
peptide: RMNIQMLLEAADYLER
notes: Mad1 protein, residues 6-21; source: synthetic peptide (solid support, Fmoc/t-Bu strategy)
B5: SAP25 peptide (sequence 171-186 of the SAP25 protein) (peptide)
peptide: AEMIALAGLLQMSQGE
notes: SAP25 protein, residues 171-186; source: synthetic peptide (solid support, Fmoc/t-Bu strategy)
B6: FITC-labeled SAP25 peptide (sequence 171-186 of the SAP25 protein) (peptide)
peptide: AEMIALAGLLQMSQGE
modifications: also: FITC label, position not given here
notes: SAP25 protein, residues 171-186; where the FITC is attached may be told there; source: synthetic peptide (solid support, Fmoc/t-Bu strategy)
B7: GST-REST, mouse REST (residues 31-120) (domain or fragment, UniProt Q8VIG1 31-120, looked up)
chain: YDLHELSKAELAAPQLIMLANVALTGEASGSCCDYLVGEERQMAELMPVGDNHFSESEGEGLEESADLKGLENMELGSLELSAVEPQPVF
notes: RE1 silencing transcription factor (REST), mouse, residues 31-120

Experiments:
[1] = system: smoothened (SMO); design: method as in PMID 12679522; details: Shh signaling pathway; ref [30]; cited from earlier work
[2] = system: Shh signaling pathway; test: Signaling pathway study, Shh pathway inhibitor in Sin3A knockdown P19 cells; type: cell-based, mouse; details: 30 μM Cur61414, 10 days; Tuj1 immunocytochemistry, western blot, RT-PCR; at least three experiments
Procedure: Figure 2 Signaling pathways associated with Sin3A knockdown-induced neurogenesis in P19 cells. (a–c) Sin3A knockdown P19 cells were incubated for 10 days in the absence and presence of an inhibitor for the Wnt pathway, 30 μM NSC668036 or 25 nM PFK118-310. (a) The cells were immunostained with Tuj1 antibody ([…]). (b) Expression levels of β-catenin and Tuj1 were examined by using western blot analysis. (c) Transcriptional levels of Tuj1 and NeuroD1 were examined by using RT-PCR. (d-e) Sin3A knockdown P19 cells were incubated for 10 days in the absence and presence of an inhibitor for the Shh pathway, 30 μM Cur61414. (d) The cells were immunostained with Tuj1 antibody ([…]). (e) The expression level of Tuj1 was examined by using western blot and (f) RT-PCR analyses. All experiments were conducted at least three times.
SMART™ BCA Protein Assay Kit (iNtRON Biot echnology). […]
Sin3A and Sin3B knockdown P19 cells were incubated for 10 days without any treatment. mRNA samples were isolated using an mRNA extraction kit (iNtRON Biotechnology, Inc.) according to the manufacture’s protocol. Samples were analyzed in duplicates on the GeneChip® Mouse Gene 2.0 ST Array (Affymetrix). […]

[3] = system: Wnt/β-catenin pathway; test: Signaling pathway study, Wnt/β-catenin pathway inhibitors in Sin3A knockdown P19 cells; type: cell-based, mouse; details: for transcriptional level of NeuroD1 (in words): RT-PCR; for neurogenesis inducing capability of Sin3A-silenced cells (in words) / translational level of β-catenin (in words): versus untreated cells; for neurogenesis inducing capability of Sin3A-silenced cells (in words): at least three experiments; for translational level of β-catenin (in words): western blot
[4] = system: PDZ domain of Dishevelled (Dvl/Dsh) protein; details: upstream inhibitor for the Wnt/β-catenin pathway; ref [28]; cited from earlier work
[5] = system: complex between Tcf4 and β-catenin; details: downstream inhibitor for the Wnt/β-catenin pathway; no reference given; cited from earlier work
[6] = system: P19 cells; test: Astrocyte differentiation of P19 cells (GFAP and S100); type: cell-based, mouse; details: 1 μM retinoic acid, 10 days, untransfected P19 cells; Tuj1, GFAP, S100 immunocytochemistry
[7] = target: T1, mouse Sin3A PAH2 (residues 295-385); test: fluorescence polarisation; FITC-labeled Mad1 and SAP25 peptides incubated separately with various concentrations of PAH1 and PAH2; details: both partners purified
[8] = system: mouse REST (residues 31–120); test: ELISA binding of Sin3A PAH1 and PAH2 domains to REST; details: wells coated with PAH1 or PAH2 (1 μg/mL), GST-REST 0-2 μg/mL, 2 h, mean ± s.d., n = 3
[9] = target: B7; test: ELISA; Sin3A PAH1 and PAH2 with mouse REST (residues 31-120); who was coated is not told for this experiment; details: both partners purified
[10] = target: T1, mouse Sin3A PAH2 (residues 295-385); test: ELISA; competition: PAH1 or PAH2 (1 ug/mL) coated wells pre-incubated 2 h with various concentrations of SAP25 or Mad1 peptide, then GST-REST (2 ug/mL) for 2 h; detected with anti-GST antibody and HRP conjugated secondary antibody; details: both partners purified
[11] = target: B2; test: as above; details: both partners purified
[12] = target: B2; test: fluorescence polarisation; FITC-labeled Mad1 and SAP25 peptides incubated separately with various concentrations of PAH1 and PAH2; details: both partners purified
[13] = target: T1, mouse Sin3A PAH2 (residues 295-385); test: ELISA; Sin3A PAH1 and PAH2 with mouse REST (residues 31-120); who was coated is not told for this experiment; details: both partners purified

For COc1cccc(CN(C(=O)CC(C)(C)C)[C@H]2C[C@@H](C(=O)N3CCNCC3)N(Cc3ccc4c(c3)OCO4)C2)c1 [Cur61414], the “inhibition of smoothened (in words)” value [1] is listed as “a known inhibitor of smoothened (SMO)” and the “neurogenesis-inducing ability of Sin3A-knockdown cells (in words)” value [2] is listed as “greatly reduced”.

For CC(NC(=O)C(OC(=O)C(C)NC(=O)OC(C)(C)C)C(C)C)C(=O)OC(C(=O)O)C(C)C (stereo not shown) [NSC668036], the “transcriptional level of NeuroD1 (in words)” value ([3]; 30 μM NSC668036, 10 days) was “greatly reduced”, the “neurogenesis inducing capability of Sin3A-silenced cells (in words)” value ([3]; 30 μM NSC668036, 10 days) was “attenuated” and the “translational level of β-catenin (in words)” value ([3]; 30 μM NSC668036, 10 days) was “markedly decreased”. The “binding to PDZ domain and inhibition of Dvl-Frizzled interaction (in words)” value [4] was “binds to the PDZ domain of Dishevelled (Dvl/Dsh) protein, a key component of Wnt signaling, and inhibits its interaction with Frizzled (Fzd)”.

With Cn1ncnc2c(=O)n(C)c(=O)nc1-2 [PKF118-310] the “transcriptional level of NeuroD1 (in words)” value ([3]; 25 nM PKF118-310, 10 days) was “greatly reduced”, the “neurogenesis inducing capability of Sin3A-silenced cells (in words)” value ([3]; 25 nM PKF118-310, 10 days) was “attenuated” and the “translational level of β-catenin (in words)” value ([3]; 25 nM PKF118-310, 10 days) was “markedly decreased”. The “inhibition of Tcf4/β-catenin complex formation (in words)” value [5] was “blocks the formation of the complex between Tcf4 and β-catenin”.

With CC1=C(/C=C/C(C)=C/C=C/C(C)=C/C(=O)O)C(C)(C)CCC1 [RA, retinoic acid] the “neurogenesis and astrogenesis of RA-treated P19 cells (in words)” value [6] was “underwent neurogenesis and astrogenesis”.

B1: binds [7].

In the case of B2, the “binding to REST (in words)” value [8] is reported as “bind with near equal strengths to REST” and the binding result [9] is reported as “binds”.

For B3, the “binding to REST (in words)” value [8] was “bind with near equal strengths to REST”.

B4: binds [10].

B5: binds [11].

B6: binds [12].

B7: binds [13].
